From patent publication US20140288071A1, “INHIBITORS OF NOTUM […] AND METHODS OF THEIR USE” (priority 2011, published 2014)
pEC50, pIC50: −log10 of the molar value.

Assays:
[1] = target: T1, human notum pectinacetyltransferase (Homo sapiens, UniProt Q6P988); experiment: Binding assay (OPTS esterase substrate, fluorimetric); format: biochemical; details: OPTS substrate 5 μM
T1 construct: made in house; conditioned medium used
T1 sequence (Q6P988 20-496): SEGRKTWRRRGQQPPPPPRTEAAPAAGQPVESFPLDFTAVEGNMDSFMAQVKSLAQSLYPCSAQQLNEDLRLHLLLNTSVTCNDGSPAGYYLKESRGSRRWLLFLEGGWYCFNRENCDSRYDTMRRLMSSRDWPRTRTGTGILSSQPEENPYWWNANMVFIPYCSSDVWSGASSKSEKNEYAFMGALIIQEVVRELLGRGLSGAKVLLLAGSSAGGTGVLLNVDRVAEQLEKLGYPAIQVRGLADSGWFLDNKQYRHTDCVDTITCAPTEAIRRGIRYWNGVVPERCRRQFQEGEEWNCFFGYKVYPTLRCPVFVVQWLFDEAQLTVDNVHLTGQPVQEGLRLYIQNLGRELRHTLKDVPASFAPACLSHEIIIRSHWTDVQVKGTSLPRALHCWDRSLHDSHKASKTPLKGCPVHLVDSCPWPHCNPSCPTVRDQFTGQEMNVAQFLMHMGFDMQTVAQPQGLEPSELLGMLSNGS
Description: Plasmid containing human notum pectinacetyltransferase in pcDNA3.1(+) vector was transfected into HEK293 cells and clones were selecting by growing in presence of 400 ug/mL of G418. Condition media from these cells was used for the assay.

[2] = target: T1, human notum pectinacetyltransferase; experiment: Reporter assay (CellSensor LEF/TCF-bla FreeStyle 293F cells, Wnt3a and notum conditioned media); format: cell-based
Description: Plasmid containing human notum pectinacetyltransferase in pcDNA3.1(+) vector was transfected into HEK293 cells and clones were selecting by growing in presence of 400 ug/mL of G418. […] L cells overexpressing and secreting Wnt3a into the conditioned media were purchased from ATCC.
The assay protocol was as follows. […] The cell growth medium consisted of DMEM with 10% Dialyzed FBS, 5 μg/ml Blasticidin (Invitrogen, R210-01), 0.1 mM NEAA, 25 mM HEPES and 1×GPS. Cells were then trypsinized by first rinsing with PBS, followed by addition of 5 mL of trypsin and incubation of plates at room temperature for two minutes. A total of 10 mL of assay media (Opti-MEM, plus 0.5% dialyzed FBS, 0.1 mM NEAA, 1 mM sodium pyruvate, 10 mM HEPES, 1×GPS) was then added per 15 cm plate. Cells were counted and suspended at 0.75 million cells per mL. […] After incubation of cells at 37° C. for 3 hours, 10 μL of 30 mM LiCl in assay medium was added per well, followed by incubation at 37° C. for another 3 hours. […] Ten μL of the Wnt3a/notum pentinacetyltransferase mixture was then transferred from Greiner plates to each well of the 384-well plates containing the CellSensor cells. After incubation of cells overnight at 37° C., reactions were developed by addition of […] of 1×CCF4 (Invitrogen, Catalogue number K1085) to each well, covering the entire 384-well plate, and gentle rocking in the dark at room temperature for 3 hours.

Compound | pIC50 [1] | pEC50 [2]
COCCNC(=O)CSc1ncnc2c(C)c(Cl)sc12 [2-((6-chloro-7-methylthieno[3,2-d]pyrimidin-4-yl)thio)-N-(2-methoxyethyl)acetamide] | > 7.60 | > 6.00
CON(C)C(=O)CSc1ncnc2sc(C)c(C)c12 [2-((5,6-dimethylthieno[2,3-d]pyrimidin-4-yl)thio)-N-methoxy-N-methylacetamide] | > 7.60 | > 6.00
Cc1sc2ncnc(SCC(=O)N3Cc4ccccc4C3)c2c1C [2-((5,6-dimethylthieno[2,3-d]pyrimidin-4-yl)thio)-1-(isoindolin-2-yl)ethanone] | > 7.60 | > 5.00
Cc1sc2ncnc(SCC(=O)N(C)C)c2c1Cl [2-((5-chloro-6-methylthieno[2,3-d]pyrimidin-4-yl)thio)-N,N-dimethylacetamide] | > 7.60 | > 6.00
CNC(=O)CSc1ncnc2sc(C)c(C)c12 [2-((5,6-dimethylthieno[2,3-d]pyrimidin-4-yl)thio)-N-methylacetamide] | > 7.60 | > 6.00
Cc1sc2ncnc(SCC(=O)OC(C)C)c2c1Cl [isopropyl 2-((5-chloro-6-methylthieno[2,3-d]pyrimidin-4-yl)thio)acetate] | > 7.60 | > 6.00
Cc1cc(NC(=O)CSc2ncnc3sc(C)c(C)c23)no1 [2-((5,6-dimethylthieno[2,3-d]pyrimidin-4-yl)thio)-N-(5-methylisoxazol-3-yl)acetamide] | > 7.60 | > 6.00
Cc1sc2ncnc(SCC(=O)NCCN3CCOCC3)c2c1Cl [2-((5-chloro-6-methylthieno[2,3-d]pyrimidin-4-yl)thio)-N-(2-morpholinoethyl)acetamide] | > 7.60 | > 6.00
CCNC(=O)CSc1ncnc2c(C)c(Cl)sc12 [2-((6-chloro-7-methylthieno[3,2-d]pyrimidin-4-yl)thio)-N-ethylacetamide] | > 7.60 | > 6.00
CCc1sc2ncnc(SCC(=O)O)c2c1Br [2-((5-bromo-6-ethylthieno[2,3-d]pyrimidin-4-yl)thio)acetic acid] | > 7.60 | > 6.00
Cc1sc2ncnc(SCC(=O)NC#N)c2c1C [N-cyano-2-((5,6-dimethylthieno[2,3-d]pyrimidin-4-yl)thio)acetamide] | > 7.60 | > 6.00
Cc1sc2ncnc(SCC(=O)O)c2c1Br [2-((5-bromo-6-methylthieno[2,3-d]pyrimidin-4-yl)thio)acetic acid] | > 7.60 | > 6.00
CCCOC(=O)CSc1ncnc2sc(C)c(C)c12 [propyl 2-((5,6-dimethylthieno[2,3-d]pyrimidin-4-yl)thio)acetate] | > 7.60 | > 6.00
Cc1c(Br)sc2ncnc(SCC(=O)O)c12 [2-((6-bromo-5-methylthieno[2,3-d]pyrimidin-4-yl)thio)acetic acid] | > 7.60 | > 6.00
CCCc1sc2ncnc(SCC(=O)O)c2c1Cl [2-((5-chloro-6-propylthieno[2,3-d]pyrimidin-4-yl)thio)acetic acid] | > 7.60 | > 6.00
COC(=O)CSc1ncnc2sc(C)c(C)c12 [methyl 2-((5,6-dimethylthieno[2,3-d]pyrimidin-4-yl)thio)acetate] | > 7.60 | > 6.00
COC(=O)CSc1ncnc2c(C)c(Cl)sc12 [methyl 2-((6-chloro-7-methylthieno[3,2-d]pyrimidin-4-yl)thio)acetate] | > 7.60 | > 6.00
Cc1c(Cl)sc2c(SCC(=O)NCC#N)ncnc12 [2-((6-chloro-7-methylthieno[3,2-d]pyrimidin-4-yl)thio)-N-(cyanomethyl)acetamide] | > 7.60 | > 6.00
Cc1sc2ncnc(SCC(=O)NCc3ccco3)c2c1Cl [2-((5-chloro-6-methylthieno[2,3-d]pyrimidin-4-yl)thio)-N-(furan-2-ylmethyl)acetamide] | > 7.60 | > 6.00
